Results reported in patent US8546076B2, “Mutational profile in HIV-1 GAG cleavage site correlated with phenotypic drug resistance” (Tibotec Pharmaceuticals Ltd., priority 2007, dated 2013).
Where “and” joins values, the source holds several entries; their conditions need not be identical. Equal values may be shown once. Read-outs that look alike come from different tables or passages of the source.

Test system: HIV-1
Settings: for Change versus baseline in log10 viral load (NC = F, non-VF censored), Mean (SE) / Virologic response rate (TLOVR, non-VF censored) defined as a decrease ≧1.0 log10 in plasma viral load versus baseline / Virologic response rate (TLOVR, non-VF censored) defined as a viral load <50 HIV-1 RNA copies/mL / mean changes versus baseline in viral load (size of decrease): Week 24; for mean changes versus baseline in viral load (size of decrease): E428G and/or R452S at baseline
Procedure: Virologic response was defined as viral load ≦50 copies/mL at week 24.
GAG genotypic analysis was performed on virus isolates from subjects of pooled trials.
Virological failures were defined using the TLOVR non-virologic failure (VF)-censored algorithm in which the responses at time points after discontinuation are not imputed (i.e. left missing) for patients who drop for reasons other than virologic failures. Using this imputation, patients that drop out for reasons other than viro logic failure are not automatically considered as rebounders or non-responders.
Genotypic analyses were performed by automated population-based sequencing. Sequence data were aligned to the wildtype HIV-1/HXB2CG reference and reported as amino acid changes along GAG and PR. Genotypic mixtures (a combination of different amino acids at 1 position) were reported. Amino acids were presented with their one letter code. Mutations in the 5 PR cleavage sites in the GAG region, encompassing the amino acids 128-137 (p17/p24), 359-368 (p24/p2), 373-382 (p2/p7), 428-437 (p7/p1), and 444-453 (p1/p6), were reported.
Virologic response was defined using the TLOVR non-VF censored algorithm eliminating patients who had no chance to respond (discontinuation before Week 16). Several endpoints to assess virologic response, e.g. proportion of responders with confirmed 1.0 log10 decrease in viral load versus baseline, change in viral load from baseline (NC=F), and proportion of responders with viral load <50 or <400 HIV-1 RNA copies/mL were evaluated.
Virologic response was defined using the TLOVR, non-VF censored algorithm eliminating patients who had no chance to respond (discontinuation before Week 16), resulting in 445 subjects included in the analysis. To assess outcome, several endpoints including the primary endpoint (proportion of responders with confirmed 1.0 log10 decrease in viral load at Week 24), change in viral load from baseline at Week 24 and proportion of responders with viral load <50 HIV-1 RNA copies/mL at Week 24 were evaluated.
Only mutations present at baseline in 10 subjects of the no/non-naïve ENF group (N=327) were taken into consideration.

[1] = E428G (p7/p1) at baseline, All subjects
[2] = E428G (p7/p1) at baseline, naïve ENF
[3] = R452S (p1/p6) at baseline, All subjects
[4] = R452S (p1/p6) at baseline, naïve ENF

With darunavir/ritonavir [DRV/rtv] the “Change versus baseline in log10 viral load (NC = F, non-VF censored), Mean (SE)” value [1] was −1.07 (0.298) log10 HIV-1 RNA copies/mL, the “Virologic response rate (TLOVR, non-VF censored) defined as a decrease ≧1.0 log10 in plasma viral load versus baseline” value [1] was 9 (47.4) % and the “Virologic response rate (TLOVR, non-VF censored) defined as a viral load <50 HIV-1 RNA copies/mL” value [1] was 3 (15.8) %. The “Change versus baseline in log10 viral load (NC = F, non-VF censored), Mean (SE)” value [2] was −1.72 (0.763) log10 HIV-1 RNA copies/mL, the “Virologic response rate (TLOVR, non-VF censored) defined as a decrease ≧1.0 log10 in plasma viral load versus baseline” value [2] was 3 (75.0) % and the “Virologic response rate (TLOVR, non-VF censored) defined as a viral load <50 HIV-1 RNA copies/mL” value [2] was 1 (25.0) %. The “Change versus baseline in log10 viral load (NC = F, non-VF censored), Mean (SE)” value (E428G (p7/p1) at baseline, no/non-naïve ENF) was −0.89 (0.318) log10 HIV-1 RNA copies/mL, the “mean changes versus baseline in viral load (size of decrease)” value (no/non-naïve ENF) was < 1.0 log10 and > 0.5 log10 and the “mean changes versus baseline in viral load (size of decrease)” value (other subgroups (All, naïve ENF)) was > 1.0 log10. The “Virologic response rate (TLOVR, non-VF censored) defined as a viral load <50 HIV-1 RNA copies/mL” value (L449P (p1/p6) at baseline, All subjects) was 12 (36.4) %, the “Virologic response rate (TLOVR, non-VF censored) defined as a viral load <50 HIV-1 RNA copies/mL” value (L449P (p1/p6) at baseline, naïve ENF) was 6 (50.0) % and the “Change versus baseline in log10 viral load (NC = F, non-VF censored), Mean (SE)” value (Overall, All subjects) was −1.84 (0.061) log10 HIV-1 RNA copies/mL. The “Virologic response rate (TLOVR, non-VF censored) defined as a decrease ≧1.0 log10 in plasma viral load versus baseline” value (Overall, All subjects) was 315 (70.8) %, the “Virologic response rate (TLOVR, non-VF censored) defined as a viral load <50 HIV-1 RNA copies/mL” value (Overall, All subjects) was 207 (46.5) % and the “Change versus baseline in log10 viral load (NC = F, non-VF censored), Mean (SE)” value (Overall, naïve ENF) was −2.33 (0.109) log10 HIV-1 RNA copies/mL. The “Virologic response rate (TLOVR, non-VF censored) defined as a decrease ≧1.0 log10 in plasma viral load versus baseline” value (Overall, naïve ENF) was 102 (86.4) %, the “Virologic response rate (TLOVR, non-VF censored) defined as a viral load <50 HIV-1 RNA copies/mL” value (Overall, naïve ENF) was 66 (55.9) % and the “Change versus baseline in log10 viral load (NC = F, non-VF censored), Mean (SE)” value (Overall, no/non-naïve ENF) was −1.67 (0.071) log10 HIV-1 RNA copies/mL. For the same substance, the “Change versus baseline in log10 viral load (NC = F, non-VF censored), Mean (SE)” value [3] was −1.12 (0.293) log10 HIV-1 RNA copies/mL, the “Virologic response rate (TLOVR, non-VF censored) defined as a decrease ≧1.0 log10 in plasma viral load versus baseline” value [3] was 12 (48.0) % and the “Virologic response rate (TLOVR, non-VF censored) defined as a viral load <50 HIV-1 RNA copies/mL” value [3] was 7 (28.0) %. For the same substance, the “Change versus baseline in log10 viral load (NC = F, non-VF censored), Mean (SE)” value [4] was −2.50 (0.276) log10 HIV-1 RNA copies/mL, the “Virologic response rate (TLOVR, non-VF censored) defined as a decrease ≧1.0 log10 in plasma viral load versus baseline” value [4] was 7 (100) % and the “Virologic response rate (TLOVR, non-VF censored) defined as a viral load <50 HIV-1 RNA copies/mL” value [4] was 6 (85.7) %. For the same substance, the “Change versus baseline in log10 viral load (NC = F, non-VF censored), Mean (SE)” value (R452S (p1/p6) at baseline, no/non-naïve ENF) was −0.58 (0.312) log10 HIV-1 RNA copies/mL, the “Virologic response rate (TLOVR, non-VF censored) defined as a viral load <50 HIV-1 RNA copies/mL” value (S451T (p1/p6) at baseline, All subjects) was 4 (18.2) % and the “Virologic response rate (TLOVR, non-VF censored) defined as a viral load <50 HIV-1 RNA copies/mL” value (S451T (p1/p6) at baseline, naïve ENF) was 1 (12.5) %. The “virologic response (viral load ≦50 copies/mL) relative to overall response” value (week 24, E428G at baseline, univariate analysis, N=467) was < 75 % of overall response.
